Four compounds from publication PMC6726858, “Discovery and characterization of a small‐molecule enteropeptidase inhibitor, SCO‐792” (Pharmacology Research & Perspectives, 2019) can be followed below.

Where two headings read alike, the source gives them in different places. *: point of attachment. βNA = c1ccc2cc(N*)ccc2c1 Where only a bound is given, the exact number is not on record here.

The target of series [1] is T1, recombinant light chain of human enteropeptidase (Homo sapiens, UniProt P98073).
T1 construct: purchased ITSI‐Biosciences (Johnstown, PA)
The experiment in a line: Determination of K m value of enteropeptidase for substrates. The following applies: Michaelis–Menten fit of initial velocities. In kind it is biochemical. An excerpt: Enteropeptidase is produced as a proenteropeptidase in enterocytes, the activation of which requires digestion to a light chain and a heavy chain. The light chain contains the catalytic active site, whereas the disulfide‐linked heavy chain provides the anchor to the brush border membrane. Thus, we used recombinant light chain of human enteropeptidase to discover its inhibitors. To identify small‐molecule enteropeptidase inhibitors, we designed two specific dual‐labeled substrates and developed enzyme assay systems. In the assay, the energy of the donor of an uncleaved substrate is transferred to the proximal acceptor at the opposite side of the substrate. When protease cleaves the substrate, the pair separates and the donor no longer transfers its emission to the acceptor, which leads to an increase in the fluorescence intensity observed from the donor.15 Enteropeptidase activity was measured with our designed substrates, Cy5‐labeled (Figure 1C) and 5FAM‐labeled substrates (Figure 1E), and commercially available substrate, H‐Gly‐Asp‐Asp‐Asp‐Asp‐Lys‐βNA (GDDDDK‐βNA), naphthylamine (Figure 1A). In our assay system, the fluorescence signal from the enzyme reaction increased in a time‐dependent manner. […]

In the next series the target is thrombin (Homo sapiens, UniProt P00734). The experiment in a line: Serine protease selectivity: thrombin. The series is classed as biochemical. The following applies: at 10 μmol/L; read-out: inhibitory activity against thrombin.
A further series has as its target plasmin (Homo sapiens, UniProt P00747). Description: Serine protease selectivity: plasmin (Panlabs Enzymatic Assay Services, Eurofins). In kind it is biochemical.
In series [2] the test system is plasma branched‐chain amino acids (BCAA). The experiment in a line: Oral protein challenge in rats (plasma BCAA). In kind it is in vivo, Sprague‐Dawley rats. As to conditions: 10, 30 mg/kg oral, ≤4 hour prior to whey protein load 2.5 g/kg. The procedure: Male Sprague‐Dawley rats were obtained from CLEA Japan Inc. (Tokyo, Japan). Eight‐week‐old rats were randomized into three groups on the basis of body weight and body weight change before the experiment (n = 4). SCO‐792 (10, 30 mg/kg in a 0.5% (w/v) methylcellulose solution) was then orally administered 1, 2, 4, and 6 hours before an oral whey protein load (2.5 g/kg; SAVAS whey protein 100, Meiji, Japan), and blood samples were collected at indicated time points for the measurement of plasma branched‐chain amino acids (BCAA).
Plasma BCAA concentration was measured using an enzymatic spectrophotometric assay as described by Beckett.14 Briefly, bacterial leucine dehydrogenase was used to catalyze the oxidation of BCAA, and the production of NADH was measured using a spectrophotometer (excitation 355 nm, emission 460 nm). L‐leucine was used to generate a standard curve to determine sample concentrations.

Series [3] concerns the target T2, human recombinant enteropeptidase (Homo sapiens, UniProt P98073).
T2 construct: purchased ITSI‐Biosciences (Johnstown, PA)
Description: Kinetic analysis of enteropeptidase inhibition (progress curves, k obs). In kind it is biochemical. As to conditions: for k inact/K I: 5FAM‐labeled substrate 0.7 μmol/L, corrected for [S]/Km. The procedure:
For kinetic analysis, compounds were dissolved in DMSO and then diluted in the enteropeptidase assay buffer. Five microliters of compound solution was added to a 384‐well black plate followed by 5 μL of substrate solution [2.1 μmol/L 5FAM‐Abu‐Gly‐Asp‐Asp‐Asp‐Lys‐Ile‐Val‐Gly‐Gly‐Lys (CPQ2)‐Lys‐Lys‐NH2] and 5 μL of 24 mU/mL human recombinant enteropeptidase solution and mixed. The final concentration of substrate was 0.7 μmol/L, which is almost the same as the K m value. The fluorescence was measured every minute at an excitation wavelength of 485 nm and an emission wavelength of 520 nm using an EnVision multilabel plate reader. The progress curves were fitted to the following equation to determine the values for k obs, the apparent rate constant from initial rate v 0 to steady state rate v s:(1) F=vst+(v0-vs)(1-e^-kobst)/kobs+F0, where t is the time, F is the fluorescence, and F 0 is the fluorescence at time t = 0.
The k inact/K I,app value was determined as the slope of the [I] vs k obs plot, and the corrected k inact/K I value was also estimated according to the following equation:(2) kinact/KI,app=kinact/KI/(1+[S]/Km), where [I] is the concentration of inhibitor, [S] is the concentration of substrate, and K m is the Michaelis–Menten constant.

The target of series [4] is T2, human recombinant enteropeptidase. The experiment in a line: Dissociation assay (rapid dilution). In kind it is biochemical. The procedure: For the dissociation assay, compounds were dissolved in DMSO and then diluted in the enteropeptidase assay buffer. Ten microliters of compound solution was added to a 96‐well plate, and then 10 μL of 100 mU/mL human recombinant enteropeptidase solution was added to the plate and incubated at room temperature for 120 minutes. The concentration of the compound was equal to 10‐fold of the IC50 value upon incubation for 120 minutes. After this incubation, 2 μL of an compound‐enzyme mixture was transferred to a 96‐well black plate, and then 200 μL of substrate solution [3 μmol/L 5FAM‐Abu‐Gly‐Asp‐Asp‐Asp‐Lys‐Ile‐Val‐Gly‐Gly‐Lys(CPQ2)‐Lys‐Lys‐NH2] was added to the well. By its rapid dilution, the concentration of the inhibitor dropped from 10‐fold above the IC50 to 10‐fold below it. The fluorescence was measured every […] at an excitation wavelength of 485 nm and an emission wavelength of 520 nm using an EnVision multilabel plate reader. The progress curves were fitted to the following equations to determine the values for k off and dissociation half‐life, t 1/2.(3) F=vst+((v0-vs)(1-e^-kofft))/koff+F0 (4) t1/2=ln(2)/koff

In a further series the target is T3, factor XIIa (Homo sapiens, UniProt P00748).
T3 sequence (P00748 373-615 limits assumed): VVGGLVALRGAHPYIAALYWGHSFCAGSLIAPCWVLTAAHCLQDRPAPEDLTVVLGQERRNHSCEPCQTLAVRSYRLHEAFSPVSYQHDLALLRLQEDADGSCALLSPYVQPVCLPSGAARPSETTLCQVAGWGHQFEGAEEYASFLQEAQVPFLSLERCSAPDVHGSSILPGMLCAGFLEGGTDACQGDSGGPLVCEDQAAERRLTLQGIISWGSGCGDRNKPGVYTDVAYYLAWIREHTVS
The experiment in a line: Serine protease selectivity: factor XIIa. In kind it is biochemical. The following applies: at 10 μmol/L; read-out: inhibitory activity against factor XIIa.

Another series addresses factor Xa (Homo sapiens, UniProt P00742). The experiment in a line: Serine protease selectivity: factor Xa. In kind it is biochemical. The following applies: at 10 μmol/L; read-out: inhibitory activity against factor Xa.
The next series deals with plasma kallikrein (Homo sapiens, UniProt P03952). The experiment in a line: Serine protease selectivity: plasma kallikrein (Panlabs Enzymatic Assay Services, Eurofins). In kind it is biochemical.
A further series addresses DPP‐4 (Homo sapiens, UniProt P27487). Description: Serine protease selectivity: DPP‐4. The series is classed as biochemical. The following applies: at 10 μmol/L; read-out: inhibitory activity against DPP‐4.
Series [5] has as its target T2, human recombinant enteropeptidase. The experiment in a line: Enteropeptidase enzyme assay (human recombinant enteropeptidase, FRET substrate). In kind it is biochemical. The following applies: 120‐minute incubation; read-out: IC50 (95% confidence intervals), human enteropeptidase activity. How it is done:
In the HTS, enzyme and substrate were dissolved in the enteropeptidase assay buffer [50 mmol/L Tricine, pH 8.0, 0.01% (w/v) Tween20, and 10 mmol/L CaCl2]. Twenty‐five nanoliters of compound solution dissolved in DMSO was added to a 1536‐well black plate, and then 2 μL of 90 mU/mL human recombinant enteropeptidase solution was added to the plate and incubated at room temperature for 60 minutes. Next, 2 μL of substrate solution [2.1 μmol/L QSY21‐Gly‐Asp‐Asp‐Asp‐Lys‐Ile‐Val‐Gly‐Gly‐Lys (Cy5)] was added to the plate and incubated at room temperature for 30 minutes. After incubation, 2 μL of 30 mmol/L H2SO4 solution was added to stop the reaction. The fluorescence was measured at an excitation wavelength of 620 nm and an emission wavelength of 685 nm by multilabel plate reader EnVision (PerkinElmer, Waltham, MA).
For kinetic analysis, compounds were dissolved in DMSO and then diluted in the enteropeptidase assay buffer. […] The fluorescence was measured every minute at an excitation wavelength of 485 nm and an emission wavelength of 520 nm using an EnVision multilabel plate reader. The progress curves were fitted to the following equation to determine the values for k obs, the apparent rate constant from initial rate v 0 to steady state rate v s:(1) F=vst+(v0-vs)(1-e^-kobst)/kobs+F0, where t is the time, F is the fluorescence, and F 0 is the fluorescence at time t = 0. […]

A short description of series [6]: Pharmacokinetic study in rats. The series is classed as in vivo, Sprague‐Dawley rats. As to conditions: for AUC(0-t): read-out: AUC0–24 h. How it is done:
Male Sprague‐Dawley rats were obtained from Charles River Laboratories Japan, Inc. (Yokohama, Japan). A pharmacokinetic study was conducted when the animals were 8 weeks old. For oral administration, SCO‐792 was suspended in a 0.5% (w/v) methylcellulose solution. For intravenous administration, SCO‐792 was dissolved in DMSO and added with saline to prepare a dosing formulation at a concentration of 0.2 mg/mL (DMSO:saline = 2:8 (v/v)). The oral dosing formulations were mixed well and given to fed‐male rats at single doses of 10 mg/5 ml/kg using polypropylene syringes with gavage needles. The intravenous dosing formulation was injected into the femoral vein of fed‐male rats at a dose of 0.2 mg/1 ml/kg using polypropylene syringes with needles under anesthesia with isoflurane. The blood was collected at the indicated time points, and the plasma concentrations of SCO‐792 were determined by high‐performance liquid chromatography/tandem mass spectrometry.

In the next series the test system is chymotrypsin. Description: Serine protease selectivity: chymotrypsin. In kind it is biochemical. As to conditions: at 10 μmol/L.
The next series in a line: Chemical stability. In kind it is physicochemical.
The mark [7] stands for this setting: 120 min preincubation, rapid dilution.
Where [8] appears, read: male, Sprague-Dawley, rat, in vivo, intravenous, 0.2 mg/kg, mean ± SD (n = 3).
The mark [9] stands for this setting: male, Sprague-Dawley, rat, in vivo, oral, 10 mg/kg, mean ± SD (n = 3).

T2 sequence (P98073 785-1019 limits assumed): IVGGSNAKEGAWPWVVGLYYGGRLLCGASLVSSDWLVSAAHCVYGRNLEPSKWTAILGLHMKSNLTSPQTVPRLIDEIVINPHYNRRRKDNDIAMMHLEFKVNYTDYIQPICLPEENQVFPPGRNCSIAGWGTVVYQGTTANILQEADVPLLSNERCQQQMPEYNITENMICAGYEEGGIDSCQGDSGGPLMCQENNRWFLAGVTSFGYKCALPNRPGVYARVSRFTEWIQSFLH
T1 sequence (P98073 785-1019 limits assumed): as above
Sequence of plasmin (P00747 581-810 limits assumed, species assumed): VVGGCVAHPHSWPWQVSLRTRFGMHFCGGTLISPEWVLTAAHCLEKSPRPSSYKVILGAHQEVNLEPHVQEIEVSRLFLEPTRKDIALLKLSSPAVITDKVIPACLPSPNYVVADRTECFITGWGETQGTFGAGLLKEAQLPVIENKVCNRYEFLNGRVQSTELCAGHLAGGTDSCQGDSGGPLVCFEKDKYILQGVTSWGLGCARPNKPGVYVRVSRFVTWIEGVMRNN
Sequence of plasmin (P00747 97-580 partner limits assumed, species assumed): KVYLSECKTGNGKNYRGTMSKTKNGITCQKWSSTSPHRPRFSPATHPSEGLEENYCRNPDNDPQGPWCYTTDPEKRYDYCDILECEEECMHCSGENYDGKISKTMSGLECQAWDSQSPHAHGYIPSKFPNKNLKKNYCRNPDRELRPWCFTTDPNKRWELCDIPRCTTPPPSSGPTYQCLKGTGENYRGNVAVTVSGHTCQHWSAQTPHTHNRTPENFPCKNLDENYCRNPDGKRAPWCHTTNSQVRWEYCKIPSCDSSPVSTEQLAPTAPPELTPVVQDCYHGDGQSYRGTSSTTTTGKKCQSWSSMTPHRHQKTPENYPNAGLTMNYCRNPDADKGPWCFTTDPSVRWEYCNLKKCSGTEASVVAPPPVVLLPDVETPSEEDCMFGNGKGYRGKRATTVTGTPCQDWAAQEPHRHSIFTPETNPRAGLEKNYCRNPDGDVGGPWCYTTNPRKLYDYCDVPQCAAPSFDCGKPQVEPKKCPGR
Sequence of DPP‐4 (P27487 whole entry, species assumed): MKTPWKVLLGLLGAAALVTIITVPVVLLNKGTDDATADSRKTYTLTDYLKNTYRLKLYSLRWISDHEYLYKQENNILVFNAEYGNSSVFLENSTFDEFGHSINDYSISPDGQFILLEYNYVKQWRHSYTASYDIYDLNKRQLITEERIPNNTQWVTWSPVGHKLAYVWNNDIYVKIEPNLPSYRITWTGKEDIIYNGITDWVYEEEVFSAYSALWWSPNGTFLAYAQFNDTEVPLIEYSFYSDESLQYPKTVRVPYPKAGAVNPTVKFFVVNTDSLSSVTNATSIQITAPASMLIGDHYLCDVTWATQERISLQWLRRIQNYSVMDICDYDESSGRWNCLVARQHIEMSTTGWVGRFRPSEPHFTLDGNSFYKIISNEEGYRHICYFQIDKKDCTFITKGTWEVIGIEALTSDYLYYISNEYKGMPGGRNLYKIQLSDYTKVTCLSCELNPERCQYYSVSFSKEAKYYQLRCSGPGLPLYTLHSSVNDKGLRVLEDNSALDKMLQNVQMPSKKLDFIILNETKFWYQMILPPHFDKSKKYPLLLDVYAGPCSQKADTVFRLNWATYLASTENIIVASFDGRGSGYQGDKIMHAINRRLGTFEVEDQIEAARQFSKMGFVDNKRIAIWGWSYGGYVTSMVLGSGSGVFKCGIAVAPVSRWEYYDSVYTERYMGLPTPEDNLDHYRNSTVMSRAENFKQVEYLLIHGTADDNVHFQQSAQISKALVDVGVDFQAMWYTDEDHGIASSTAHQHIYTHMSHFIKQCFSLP
Sequence of plasma kallikrein (P03952 391-638 limits assumed, species assumed): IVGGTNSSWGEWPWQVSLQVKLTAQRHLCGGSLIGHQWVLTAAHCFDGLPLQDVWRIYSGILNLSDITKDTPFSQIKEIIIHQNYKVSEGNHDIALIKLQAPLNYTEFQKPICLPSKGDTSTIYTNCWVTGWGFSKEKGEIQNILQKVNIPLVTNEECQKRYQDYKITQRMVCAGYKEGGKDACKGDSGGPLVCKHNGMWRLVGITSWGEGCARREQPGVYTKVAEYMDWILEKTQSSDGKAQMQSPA
Sequence of plasma kallikrein (P03952 20-390 partner limits assumed, species assumed): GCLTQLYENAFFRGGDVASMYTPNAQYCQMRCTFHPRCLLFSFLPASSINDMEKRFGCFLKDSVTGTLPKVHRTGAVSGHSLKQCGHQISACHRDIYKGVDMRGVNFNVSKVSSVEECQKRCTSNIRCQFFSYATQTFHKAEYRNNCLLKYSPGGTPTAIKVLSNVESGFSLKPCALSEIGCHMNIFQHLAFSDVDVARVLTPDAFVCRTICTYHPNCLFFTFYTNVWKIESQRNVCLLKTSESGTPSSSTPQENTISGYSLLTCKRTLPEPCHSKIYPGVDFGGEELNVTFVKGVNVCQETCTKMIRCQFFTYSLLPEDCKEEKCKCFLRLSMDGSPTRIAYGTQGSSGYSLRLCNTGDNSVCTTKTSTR
Sequence of factor Xa (P00742 235-488 limits assumed): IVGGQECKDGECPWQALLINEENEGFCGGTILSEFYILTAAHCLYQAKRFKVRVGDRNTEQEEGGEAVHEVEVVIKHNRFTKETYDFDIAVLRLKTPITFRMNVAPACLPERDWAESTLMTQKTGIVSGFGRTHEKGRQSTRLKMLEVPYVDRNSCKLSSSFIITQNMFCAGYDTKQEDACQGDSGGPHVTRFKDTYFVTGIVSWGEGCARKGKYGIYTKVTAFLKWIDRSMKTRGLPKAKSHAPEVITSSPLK
Sequence of factor Xa (P00742 41-179 partner limits assumed): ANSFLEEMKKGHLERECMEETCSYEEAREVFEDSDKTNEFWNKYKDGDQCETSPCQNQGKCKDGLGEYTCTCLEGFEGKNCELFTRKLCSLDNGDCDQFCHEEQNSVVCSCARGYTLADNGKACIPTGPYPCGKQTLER

Take “5FAM‐Abu‐Gly‐Asp‐Asp‐Asp‐Lys‐Ile‐Val‐Gly‐Gly‐Lys (CPQ2)‐Lys‐Lys‐NH2 [5FAM‐labeled substrate]”: the “K m value for enteropeptidase” value in series [1] is 0.7 µM.
What is called IC50 is the concentration at which inhibition is half-maximal. Broadly, the koff is the first-order rate constant of dissociation. A word on the AUC(0-inf): it is the area under the concentration-time curve extrapolated to infinity. Read a low AUC(0-inf) as less exposure. In general, half-life refers to how long it takes for the measured level to halve. As a reminder, the Tmax is the time from dosing to the highest level. Turning to `N=C(N)Nc1ccc(C(=O)Oc2ccc3c(c2)OC[C@H]3CC(=O)N[C@@H](CC(=O)O)C(=O)O)cc1.O` [SCO‐792, N‐({(3S)‐6‐[(4‐carbamimidamidobenzoyl)oxy]‐2,3‐dihydro‐1‐benzofuran‐3‐yl}acetyl)‐L‐aspartic acid hydrate], the inhibition at 10 µM on thrombin, on factor XIIa, on factor Xa and at DPP‐4 was < 50% in each case. In addition, the values for the IC50 (against plasmin; at plasma kallikrein; in series [5]) were 0.46 µM, 0.016 µM and 0.0054 µM, respectively. Also, the “effect on plasma BCAA elevations induced by oral protein dosing” value in series [2] is “effectively and dose‐dependently inhibited”. Besides, the “time dependence of enteropeptidase inhibition” value in series [3] is “time‐dependent”. Besides, the “k inact/K I” value in series [3] was 82 000 /mol/L s. Also, in series [4], the reversibility of inhibition entry was “reversible”. In addition, in [4] (setting [7]), the “dissociation t 1/2” value came out at 14 h. For the same compound, the koff in series [4] (setting [7]) is 1.31e-05 s⁻¹. In series [6] (from AUC0‐24 h oral 10 mg/kg vs intravenous 0.2 mg/kg), this compound displayed a BA of 0.4%. Moreover, the area under the curve AUC(0-inf) in series [6] (setting [8]) turned out to be 0.304 ± 0.03 µg·h/mL; in series [6] (setting [9]), 0.0498 ± 0.0054 µg·h/mL. Besides, the half-life in series [6] (setting [8]) is 5.2 ± 1.8 h; in [6] (setting [9]) it was 4.4 ± 0.5 h. For the same compound, the AUC(0-t) is 0.303 ± 0.023 µg·h/mL in series [6] (setting [8]) and 0.0541 ± 0.0075 µg·h/mL in series [6] (setting [9]). Besides, in series [6] (male, Sprague-Dawley, rat, in vivo, intravenous, 0.2 mg/kg, mean ± SD (n = 3), read-out: CLp (converted)), the clearance is 0.663 L/h/kg. In series [6] (male, Sprague-Dawley, rat, in vivo, intravenous, 0.2 mg/kg, mean ± SD (n = 3), read-out: Vss), the Vd was 1.29 ± 0.299 L/kg. The Cmax at 5 min in series [6] (male, Sprague-Dawley, rat, in vivo, intravenous, 0.2 mg/kg, observed at 5 minutes, mean ± SD (n = 3), read-out: C max (C5 min)) worked out at 0.564 ± 0.058 µg/mL. The compound also yielded a Cmax in series [6] (setting [9]) of 0.0066 ± 0.00136 µg/mL. The time of peak concentration (Tmax) in series [6] (setting [9]) was 1.7 ± 0.6 h. Further, the “inhibitory activity against chymotrypsin” value with chymotrypsin is reported as < 50%.
For `Cc1cc(OC(=O)c2ccc(NC(=N)N)cc2)no1` [T‐0046812], in series [3], the “time dependence of enteropeptidase inhibition” value was “time‐dependent” and the “k inact/K I” value was determined as 5300 mol⁻¹ L⁻¹ s⁻¹. For the same compound, the chemical stability entry in “Chemical stability” (pH 1.2) is recorded as “unstable”. In addition, the chemical stability result in “Chemical stability” (pH 6.8) is reported as “unstable”. Besides, the IC50 in series [5] worked out at 0.14 µM.
As to H-GDDDDK-βNA [GDDDDK‐βNA], the “K m value for enteropeptidase” value in [1] is 230 µM.
